Values of other authors, collected in patent US12478643B2, “Compositions and methods for the prevention or treatment of rheumatoid arthritis” (Rhode Island Hospital, priority 2021, dated 2025).
Like-named read-outs stand apart in the source and are kept apart here.

How the values were obtained:
SHIP1 [1] = target: T1, SHIP1 (Homo sapiens, UniProt Q92835)
T1 sequence (Q92835 1-1189): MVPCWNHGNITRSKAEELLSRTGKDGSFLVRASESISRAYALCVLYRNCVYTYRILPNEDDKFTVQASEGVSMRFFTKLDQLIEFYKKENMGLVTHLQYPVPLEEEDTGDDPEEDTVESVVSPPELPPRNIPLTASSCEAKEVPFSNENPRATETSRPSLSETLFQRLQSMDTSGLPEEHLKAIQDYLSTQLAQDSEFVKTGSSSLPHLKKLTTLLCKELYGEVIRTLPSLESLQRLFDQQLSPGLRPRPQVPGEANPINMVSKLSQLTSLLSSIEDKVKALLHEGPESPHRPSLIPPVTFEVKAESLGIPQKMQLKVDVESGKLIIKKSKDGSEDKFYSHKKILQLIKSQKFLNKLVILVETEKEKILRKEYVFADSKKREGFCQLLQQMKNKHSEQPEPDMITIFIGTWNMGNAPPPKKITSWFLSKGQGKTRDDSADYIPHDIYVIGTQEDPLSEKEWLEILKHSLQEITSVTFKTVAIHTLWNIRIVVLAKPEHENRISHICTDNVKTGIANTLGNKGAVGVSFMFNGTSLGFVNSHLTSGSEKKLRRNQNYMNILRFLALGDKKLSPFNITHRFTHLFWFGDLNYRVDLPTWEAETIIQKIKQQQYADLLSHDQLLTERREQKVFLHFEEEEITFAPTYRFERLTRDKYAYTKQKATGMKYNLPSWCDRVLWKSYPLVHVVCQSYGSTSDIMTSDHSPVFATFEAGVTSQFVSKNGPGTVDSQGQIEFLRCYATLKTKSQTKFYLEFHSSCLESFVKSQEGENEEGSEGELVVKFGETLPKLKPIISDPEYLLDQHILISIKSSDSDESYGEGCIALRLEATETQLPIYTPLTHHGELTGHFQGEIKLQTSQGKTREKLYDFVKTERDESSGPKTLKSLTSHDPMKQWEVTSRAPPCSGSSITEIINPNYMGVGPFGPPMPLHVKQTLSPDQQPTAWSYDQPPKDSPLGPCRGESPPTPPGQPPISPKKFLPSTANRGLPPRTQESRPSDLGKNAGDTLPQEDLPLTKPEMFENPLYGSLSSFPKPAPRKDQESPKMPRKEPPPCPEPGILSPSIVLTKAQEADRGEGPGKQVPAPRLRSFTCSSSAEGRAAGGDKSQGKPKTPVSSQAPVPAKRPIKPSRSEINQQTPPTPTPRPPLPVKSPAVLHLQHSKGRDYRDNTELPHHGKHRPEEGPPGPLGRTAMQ

SHIP1 [2] = target: T1, SHIP1; details: at 100 μM; cited from earlier work
SHIP2 = target: T2, SHIP2 (Homo sapiens, UniProt O15357); details: at 100 μM; cited from earlier work
T2 sequence (O15357 1-1258): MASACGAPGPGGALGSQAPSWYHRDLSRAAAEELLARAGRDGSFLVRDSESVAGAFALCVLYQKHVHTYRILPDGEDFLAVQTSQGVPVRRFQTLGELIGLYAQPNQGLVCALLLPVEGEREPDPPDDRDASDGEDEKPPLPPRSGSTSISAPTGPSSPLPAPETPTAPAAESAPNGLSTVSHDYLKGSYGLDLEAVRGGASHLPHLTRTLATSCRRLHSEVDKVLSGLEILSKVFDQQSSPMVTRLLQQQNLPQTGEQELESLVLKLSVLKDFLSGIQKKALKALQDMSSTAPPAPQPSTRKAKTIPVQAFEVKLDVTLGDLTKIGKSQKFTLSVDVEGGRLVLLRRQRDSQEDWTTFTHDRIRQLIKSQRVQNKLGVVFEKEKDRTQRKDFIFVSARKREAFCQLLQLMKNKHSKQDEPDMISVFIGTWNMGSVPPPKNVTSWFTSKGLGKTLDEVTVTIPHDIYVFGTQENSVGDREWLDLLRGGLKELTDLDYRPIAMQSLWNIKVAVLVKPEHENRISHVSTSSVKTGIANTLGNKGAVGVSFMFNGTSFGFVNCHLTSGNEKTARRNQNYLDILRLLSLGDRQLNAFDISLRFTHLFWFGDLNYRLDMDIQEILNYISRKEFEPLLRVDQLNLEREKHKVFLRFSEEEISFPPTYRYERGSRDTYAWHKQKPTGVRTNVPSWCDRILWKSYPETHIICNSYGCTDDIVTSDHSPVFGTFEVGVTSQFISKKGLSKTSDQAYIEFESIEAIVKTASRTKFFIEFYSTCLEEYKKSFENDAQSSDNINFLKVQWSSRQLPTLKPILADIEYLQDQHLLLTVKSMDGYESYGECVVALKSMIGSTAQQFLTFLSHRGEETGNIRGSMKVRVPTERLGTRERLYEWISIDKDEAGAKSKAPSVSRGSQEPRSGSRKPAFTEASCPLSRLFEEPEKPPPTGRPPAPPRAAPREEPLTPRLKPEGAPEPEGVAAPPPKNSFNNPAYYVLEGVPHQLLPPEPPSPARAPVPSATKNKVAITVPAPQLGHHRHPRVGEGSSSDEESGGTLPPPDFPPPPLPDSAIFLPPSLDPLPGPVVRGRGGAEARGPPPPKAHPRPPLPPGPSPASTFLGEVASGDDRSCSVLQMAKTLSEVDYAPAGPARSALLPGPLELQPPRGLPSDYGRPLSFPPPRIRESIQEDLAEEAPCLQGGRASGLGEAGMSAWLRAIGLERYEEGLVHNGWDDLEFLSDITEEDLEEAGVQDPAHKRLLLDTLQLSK

[3] = Table 1; read-out: IC50 SHIP1; cited from earlier work

Compound | IC50 (SHIP1 [1]; [3]) [µM] | inhibition of SHIP1 activity (SHIP1 [2]) | inhibition of SHIP2 (SHIP2) | other results
C[C@H](NC(=O)c1sccc1OCc1ccc(Cl)cc1)c1ccccc1 [AS194490] | 13 |  |  | 
O[C@H](c1cc(-c2ccccc2)nc2c1ccc1ccccc12)[C@@H]1CCCCN1 [Compound 26] |  | completely inhibited | approximately 60% | 
O[C@H](c1cc(C2C3CC4CC(C3)CC2C4)nc2c(Cl)cc(Cl)cc12)[C@@H]1CCCCN1 (some centres unmarked) [Compound 27] |  | completely inhibited | 90% | 
CSc1ccc2c(c1)c(CCN)c(C)n2Cc1ccccc1Cl [Compound 28] |  | approximately 70% | 50% | 
CC[C@H]1CC[C@H]2[C@@H]3C[C@@H](O)[C@@]4(O)C[C@H](N)CC[C@]4(C)[C@H]3CC[C@]12C [Compound K116] | 1.5 to 6 |  |  | 
CC12CCCC1C1CCC3CC(N)CCC3(C)C1CC2 (centres unmarked) [Compound K118] |  |  |  | IC50 (SHIP1 [1]; read-out: IC50 SHIP1; Table 1; cited from earlier work): 16 µM
CC12CCCC1C1CCC3CC(N)C(N)CC3(C)C1CC2 (centres unmarked) [Compound K161] | 6 |  |  | 
CC12CCCC1C1CCC3CC(N)CCC3(C)C1CC2 (centres unmarked) [Compound K185] | 18 |  |  | 
